For orientation: MIC means the lowest concentration that inhibits growth of the organism. Low readings indicate greater potency, high ones weaker potency.

Counter-ions that a name gives are not always drawn.

This is an account of results in EP0674645B1, “CEPHEM COMPOUNDS WITH ANTIMICROBIAL ACTIVITY” (FUJISAWA PHARMACEUTICAL CO., LTD., priority 1992, dated 1994).

Experiment in all cases: In vitro antibacterial activity, two-fold agar-plate dilution method (MIC)
What all share (format): cell-based

The test system of one test is E. coli 31. To be noted: Escherichia coli, heart infusion agar, 10^6 viable cells per ml, 37°C for 20 hours. The procedure: (§1) In vitro antibacterial activity was determined by the two-fold agar-plate dilution method as described below. One loopful of an overnight culture of each test strain in Trypticase-soy broth (10^6 viable cells per ml) was streaked on heart infusion agar (HI-agar) containing graded concentrations of representative test compound, and the minimal inhibitory concentration (MIC) was expressed in terms of µg/ml after incubation at 37°C for 20 hours.

The next test has as its system P. aeruginosa 2. The conditions noted are these: Pseudomonas aeruginosa, heart infusion agar, 10^6 viable cells per ml, 37°C for 20 hours. On the procedure: as §1
For the next test, the system named is S. aureus 2538. To be noted: Staphylococcus aureus, heart infusion agar, 10^6 viable cells per ml, 37°C for 20 hours. On the procedure: as §1

`CCO/N=C(\C(=O)N[C@@H]1C(=O)N2C(C(=O)[O-])=C(C[n+]3ccc(N)n3CCO)CS[C@H]12)c1nsc(N)n1` [7β-[2-(5-Amino-1,2,4-thiadiazol-3-yl)-2-ethoxyiminoacetamido]-3-[3-amino-2-(2-hydroxyethyl)-1-pyrazolio]methyl-3-cephem-4-carboxylate hydrochloride (syn isomer)]: the MIC in the test with E. coli 31 was ≤ 0.025 µg/mL; with P. aeruginosa 2, 0.39 µg/mL; with S. aureus 2538 it was 3.13 µg/mL.
